Assay results published in PubChem BioAssay (NCI).
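Grown in 96-well plates, cells were treated for 48 hours with each compound at five concentrations. Insufficient inhibition: endpoint recorded as highest concentration tested. At the TGI there is no net growth.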

What was measured:
Assay in all cases: DTP human tumour cell line panel, 48 h
[1] = test system: U251 CNS
[2] = test system: IGROV1 ovarian
[3] = test system: DLD-1 colon
[4] = test system: SR leukemia
[5] = test system: SK-OV-3 ovarian
[6] = test system: OVCAR-8 ovarian
[7] = test system: NCI-H460 lung
[8] = test system: NCI-H23 lung
[9] = test system: ACHN renal
[10] = test system: M19-MEL melanoma
[11] = test system: HCT-15 colon
[12] = test system: NCI-H522 lung
[13] = test system: XF 498 CNS
[14] = test system: CCRF-CEM leukemia
[15] = test system: OVCAR-3 ovarian
[16] = test system: A498 renal
[17] = test system: SK-MEL-5 melanoma
[18] = test system: HL-60(TB) leukemia
[19] = test system: SNB-19 CNS
[20] = test system: HOP-62 NSCLC
[21] = test system: SW-620 colon
[22] = test system: HT29 colon
[23] = test system: OVCAR-4 ovarian
[24] = test system: M14 melanoma
[25] = test system: EKVX NSCLC
[26] = test system: UACC-257 melanoma
[27] = test system: SF-539 CNS
[28] = test system: TK-10 renal
[29] = test system: UO-31 renal
[30] = test system: RPMI-8226 leukemia
[31] = test system: CAKI-1 renal
[32] = test system: NCI-H226 lung
[33] = test system: KM12 colon
[34] = test system: SK-MEL-28 melanoma
[35] = test system: A549 NSCLC
[36] = test system: HCT-116 colon
[37] = test system: K-562 leukemia
[38] = test system: SF-295 CNS
[39] = test system: COLO 205 colon
[40] = test system: DMS 114 small cell lung
[41] = test system: LOX IMVI melanoma
[42] = test system: SNB-78 CNS
[43] = test system: DMS 273 small cell lung
[44] = test system: RXF-631 renal
[45] = test system: UACC-62 melanoma
[46] = test system: SK-MEL-2 melanoma
[47] = test system: RXF 393 renal
[48] = test system: SNB-75 CNS
[49] = test system: MOLT-4 leukemia
[50] = test system: SF-268 CNS
[51] = test system: KM20L2 colon
[52] = test system: 786-0 renal
[53] = test system: MALME-3M melanoma
[54] = test system: HOP-18 NSCLC
[55] = test system: OVCAR-5 ovarian
[56] = test system: LXFL 529 NSCLC
[57] = test system: HCC-2998 colon
[58] = test system: SN12C renal
[59] = test system: HOP-92 NSCLC

## CC1CCN(CCC(=O)CC(c2ccccc2)c2c(O)c3ccccc3oc2=O)CC1 (centres undefined)
[1]
  TGI: > 100 µM
[2]
  TGI: > 100 µM
[3]
  TGI: > 100 µM
[4]
  TGI: > 100 µM
[5]
  TGI: > 100 µM
[6]
  TGI: > 100 µM
[7]
  TGI: > 100 µM
[8]
  TGI: > 100 µM
[9]
  TGI: > 100 µM
[10]
  TGI: > 100 µM
[11]
  TGI: > 100 µM
[12]
  TGI: > 100 µM
[13]
  TGI: > 100 µM
[14]
  TGI: > 100 µM
[15]
  TGI: > 100 µM
[16]
  TGI: > 100 µM
[17]
  TGI: > 100 µM
[18]
  TGI: > 100 µM
[19]
  TGI: > 100 µM
[20]
  TGI: > 100 µM
[21]
  TGI: > 100 µM
[22]
  TGI: > 100 µM
[23]
  TGI: > 100 µM
[24]
  TGI: > 100 µM
[25]
  TGI: > 100 µM
[26]
  TGI: > 100 µM
[27]
  TGI: > 100 µM
[28]
  TGI: > 100 µM
[29]
  TGI: > 100 µM
[30]
  TGI: > 100 µM
[31]
  TGI: > 100 µM
[32]
  TGI: > 100 µM
[33]
  TGI: > 100 µM
[34]
  TGI: > 100 µM
[35]
  TGI: > 100 µM
[36]
  TGI: > 100 µM
[37]
  TGI: > 100 µM
[38]
  TGI: > 100 µM
[39]
  TGI: > 100 µM
[40]
  TGI: > 100 µM
[41]
  TGI: > 100 µM
[42]
  TGI: > 100 µM
[43]
  TGI: > 100 µM
[44]
  TGI: > 100 µM
[45]
  TGI: > 100 µM
[46]
  TGI: > 100 µM
[47]
  TGI: > 100 µM
[48]
  TGI: > 100 µM
[49]
  TGI: > 100 µM
[50]
  TGI: > 100 µM
[51]
  TGI: > 100 µM
[52]
  TGI: > 100 µM

## O=c1c(O)c(-c2ccccc2)n(O)c2ccc(Cl)cc12
[1]
  TGI: > 100 µM
[2]
  TGI: 89.9 µM
[3]
  TGI: > 100 µM
[4]
  TGI: > 100 µM
[5]
  TGI: 78.6 µM
[6]
  TGI: 52.1 µM
[7]
  TGI: 69.2 µM
[8]
  TGI: > 100 µM
[9]
  TGI: 74 µM
[11]
  TGI: 49.6 µM
[12]
  TGI: 51.7 µM
[53]
  TGI: > 100 µM
[14]
  TGI: > 100 µM
[15]
  TGI: > 100 µM
[16]
  TGI: 78.4 µM
[17]
  TGI: 42.1 µM
[18]
  TGI: 62.8 µM
[19]
  TGI: > 100 µM
[20]
  TGI: 60.3 µM
[21]
  TGI: 34.5 µM
[22]
  TGI: > 100 µM
[54]
  TGI: > 100 µM
[23]
  TGI: > 100 µM
[55]
  TGI: 95.3 µM
[56]
  TGI: 64 µM
[24]
  TGI: > 100 µM
[26]
  TGI: > 100 µM
[27]
  TGI: 48 µM
[28]
  TGI: 72.3 µM
[29]
  TGI: > 100 µM
[57]
  TGI: 40.1 µM
[30]
  TGI: > 100 µM
[31]
  TGI: 71.1 µM
[32]
  TGI: 45.1 µM
[33]
  TGI: 80.9 µM
[34]
  TGI: > 100 µM
[58]
  TGI: 49.8 µM
[35]
  TGI: > 100 µM
[36]
  TGI: 24.6 µM
[59]
  TGI: 96.5 µM
[37]
  TGI: > 100 µM
[38]
  TGI: > 100 µM
[39]
  TGI: > 100 µM
[40]
  TGI: 54.9 µM
[41]
  TGI: 27.2 µM
[42]
  TGI: > 100 µM
[43]
  TGI: 58.6 µM
[44]
  TGI: > 100 µM
[45]
  TGI: 55.3 µM
[46]
  TGI: 58.6 µM
[47]
  TGI: 63 µM
[48]
  TGI: 80.8 µM
[49]
  TGI: > 100 µM
[50]
  TGI: > 100 µM
[51]
  TGI: 83.9 µM
[52]
  TGI: > 100 µM

## COC1=CC(=C(C#N)C(=Nc2ccccc2)SC)C=C(OC)C1=O
[1]
  TGI: 2.62 µM
[2]
  TGI: > 100 µM
[3]
  TGI: 77.3 µM
[5]
  TGI: > 100 µM
[6]
  TGI: > 100 µM
[7]
  TGI: > 100 µM
[8]
  TGI: > 100 µM
[9]
  TGI: > 100 µM
[10]
  TGI: > 100 µM
[11]
  TGI: > 100 µM
[12]
  TGI: > 100 µM
[53]
  TGI: > 100 µM
[14]
  TGI: 43.5 µM
[15]
  TGI: > 100 µM
[16]
  TGI: 80 µM
[17]
  TGI: 42.7 µM
[21]
  TGI: > 100 µM
[22]
  TGI: > 100 µM
[54]
  TGI: > 100 µM
[56]
  TGI: 36.2 µM
[25]
  TGI: > 100 µM
[26]
  TGI: > 100 µM
[27]
  TGI: > 100 µM
[28]
  TGI: > 100 µM
[29]
  TGI: > 100 µM
[57]
  TGI: > 100 µM
[30]
  TGI: 52.2 µM
[31]
  TGI: > 100 µM
[33]
  TGI: > 100 µM
[34]
  TGI: > 100 µM
[58]
  TGI: > 100 µM
[35]
  TGI: > 100 µM
[36]
  TGI: > 100 µM
[59]
  TGI: 9.97 µM
[37]
  TGI: 63.1 µM
[38]
  TGI: > 100 µM
[39]
  TGI: > 100 µM
[41]
  TGI: > 100 µM
[42]
  TGI: > 100 µM
[43]
  TGI: > 100 µM
[44]
  TGI: > 100 µM
[45]
  TGI: > 100 µM
[47]
  TGI: 78 µM
[48]
  TGI: > 100 µM
[49]
  TGI: 53.1 µM
[52]
  TGI: > 100 µM
